Among the data in patent US6960588B1, “Tryptase inhibitors” (Altana Pharma AG, priority 1999, dated 2005) are Ki values, retold here.

Structures can show the parent of a compound that is named as a salt.

The target of the assay is human tryptase. The experiment in a line: Inhibition of human tryptase (apparent dissociation constant, chromogenic substrate tos-Gly-Pro-arg-pNA). The format is biochemical. Conditions: apparent dissociation constant in presence of substrate; heparin 0.1–50 μg/ml; equilibrium conditions; read-out: Kiapp. The text has this:
The documented pathophysiological effects of mast cell tryptase are caused directly by the enzymatic activity of the protease. Accordingly, they are reduced or blocked by inhibitors which inhibit the enzymatic activity of the tryptase. A suitable measure for the affinity of a reversible inhibitor to the target protease is the equilibrium dissociation constant Ki of the enzyme-inhibitor complex. This Ki value can be determined via the effect of the inhibitor on the tryptase-induced cleavage of a chromogenic peptide-p-nitroanilide substrate or a fluorogenic peptide-aminomethylcoumarin substrate.
The dissociation constants for the tryptase-inhibitor complexes are determined under equilibrium conditions in accordance with the general proposals of Bieth (Bieth J G, Pathophysiological Interpretation of kinetic constants of protease inhibitors, Bull. Europ. Physiopath. Resp. 16:183–195, 1980) and the methods of Sommerhoff et al. (Sommerhoff C P et al., A Kazal-type inhibitor of human mast cell tryptase: Isolation from the medical leech Hirudo medicinalis, characterization, and sequence analysis, Biol. Chem. Hoppe-Seyler 375: 685–694, 1994).
Human tryptase is isolated from lung tissue or prepared recombinantly; the specific activity of the protease, determined by titration, is usually greater than 85% of the theoretical value. In the presence of heparin (0.1–50 μg/ml) for stabilizing the protease, constant amounts of the tryptase are incubated with increasing amounts of the inhibitors. After an equilibrium between the reaction partners has formed, the remaining enzyme activity after addition of the peptide-p-nitroanilide substrate tos-Gly-Pro-argpNA is determined and the cleavage of the latter is monitored at 405 nm for 3 min. Alternatively, the remaining enzymatic activity can also be determined using fluorogenic substrates. The apparent dissociation constants Kiapp (i.e. in the presence of substrate) are subsequently determined by adapting the enzyme rates to the general equation for reversible inhibitors (Morrison J F, Kinetics of the reversible inhibition of enzyme-catalyzed reactions by tight-binding inhibitors, Biochim. Biophys. Acta 185, 269–286, 1969) using non-linear regression: V1/V0=1−{Et+It+Kiapp−[(Et+It+Kiapp)^2−4EtIt]^1/2}/2Et V1 and V0 are the rates in the presence and absence, respectively, of the inhibitor, and Et and It are the tryptase and inhibitor concentrations, respectively.
The apparent dissociation constants determined for the compounds according to the invention are shown in Table A below, where the numbers of the compounds correspond to the numbers of the compounds in the examples.

Take `NCc1ccc(CNC(=O)OCC#Cc2ccccc2C#CCOC(=O)NCc2ccc(CN)cc2)cc1` [Compound 6, 1,2-Bis-(4-aminomethylbenzylaminocarbonyl-1-oxyprop-2-ynyl)-benzene Dihydrochloride]: the Ki amounted to 300 nM.
`NCc1ccc(CC(=O)C#CC(N)c2ccccc2C(N)C#CC(=O)Cc2ccc(CN)cc2)cc1` (centres unmarked) [Compound 14, 1,2-Bis-(4-aminomethylbenzylcarbonyl-1-aminoprop-2-ynyl)-benzene Dihydrochloride]: the Ki turned out to be 330 nM.
For `NCc1ccc(CNC(=O)N2CCN(C(=O)OCC#Cc3ccccc3C#CCOC(=O)N3CCN(C(=O)NCc4ccc(CN)cc4)CC3)CC2)cc1` [Compound 4, 1,2-Bis[4-(4-aminomethylbenzylaminocarbonyl)-1-piperazinylcarbonyl-1-oxyprop-2-ynyl]-benzene Dihydrochloride], the Ki turned out to be 3 nM.
As for `NCc1cccc(CNC(=O)OCC#Cc2cscc2C#CCOC(=O)NCc2cccc(CN)c2)c1` [Compound 10, 3,4-Bis-(3-aminomethylbenzylaminocarbonyl-1-oxyprop-2-ynyl)-thiophene Dihydrochloride], the figure is 150 nM.
Take `NCc1ccc(CNC(=O)N2CCN(C(=O)OCC#Cc3cccc(C#CCOC(=O)N4CCN(C(=O)NCc5ccc(CN)cc5)CC4)c3)CC2)cc1` [Compound 2, 1,3-Bis[4-(4-aminomethylbenzylaminocarbonyl)-1-piperazinylcarbonyl-1-oxyprop-2-ynyl]-benzene Dihydrochloride]: the Ki turned out to be 10 nM.
Consider `NCc1cccc(CNC(=O)OCC#Cc2ccc(C#CCOC(=O)NCc3cccc(CN)c3)o2)c1` [Compound 9, 2,5-Bis-(3-aminomethylbenzylaminocarbonyl-1-oxyprop-2-ynyl)-furan Dihydrochloride], for which the Ki turned out to be 7.5 nM.
`NCc1ccc(CNC(=O)OCC#Cc2cscc2C#CCOC(=O)NCc2ccc(CN)cc2)cc1` [Compound 7, 3,4-Bis-(4-aminomethylbenzylaminocarbonyl-1-oxyprop-2-ynyl)-thiophene Dihydrochloride]: the Ki came out at 120 nM.
As for `NCc1ccc(CNC(=O)OCC#Cc2cccc(C#CCOC(=O)NCc3ccc(CN)cc3)c2)cc1` [Compound 5, 1,3-Bis-(4-aminomethylbenzylaminocarbonyl-1-oxyprop-2-ynyl)-benzene Dihydrochloride], the figure is 32 nM; as for `NC[C@H]1CC[C@H](C(=O)N2CCN(C(=O)OCC#Cc3ccccc3C#CCOC(=O)N3CCN(C(=O)[C@H]4CC[C@H](CN)CC4)CC3)CC2)CC1` [Compound 3, 1,2-Bis[4-(trans-4-aminomethylcyclohexylcarbonyl)-1-piperazinylcarbonyl-1-oxyprop-2-ynyl]benzene Dihydrochloride], 200 nM; as for `NCc1ccc(CNC(=O)COCC#Cc2cccc(C#CCOCC(=O)NCc3ccc(CN)cc3)c2)cc1` [Compound 12, 1,3-Bis-(4-aminomethylbenzylaminocarbonylmethyl-1-oxyprop-2-ynyl)-benzene Dihydrochloride], 13 nM.
Regarding `NCc1ccc(CNC(=O)COCC#Cc2ccc(C#CCOCC(=O)NCc3ccc(CN)cc3)cc2)cc1` [Compound 11, 1,4-Bis-(4-aminomethylbenzylaminocarbonylmethyl-1-oxyprop-2-ynyl)-benzene Dihydrochloride], the Ki was 30 nM.
The result for `NCc1ccc(CC(=O)C#CC(N)c2ccc(C(N)C#CC(=O)Cc3ccc(CN)cc3)cc2)cc1` (centres unmarked) [Compound 13, 1,4-Bis-(4-aminomethylbenzylcarbonyl-1-aminoprop-2-ynyl)-benzene Dihydrochloride] reads 130 nM.
The result for `NCC1CCC(C(=O)N2CCN(C(=O)OCC#Cc3ccc(C#CCOC(=O)N4CCN(C(=O)C5CCC(CN)CC5)CC4)cc3)CC2)CC1` (stereo not drawn) [Compound 1, 1,4-Bis[4-(trans-4-aminomethylcyclohexylcarbonyl)-1-piperazinylcarbonyl-1-oxyprop-2-ynyl]benzene Dihydrochloride] reads 3 nM; that for `NCc1ccc(CNC(=O)OCC#Cc2ccc(C#CCOC(=O)NCc3ccc(CN)cc3)o2)cc1` [Compound 8, 2,5-Bis-(4-aminomethylbenzylaminocarbonyl-1-oxyprop-2-ynyl)-furan Dihydrochloride], 80 nM.
